According to the kinase profiling compilation of Christmann-Franck et al. (2016):

Tests used:
Assay in all cases: KINOMEscan competition binding
Settings in all cases: compound 10.0 µM
ACVR2A (human) = ACVR2A (human) (UniProt P27037)
AURKB (human) = AURKB (human) (UniProt Q96GD4)
CAMK1G (human) = CAMK1G (human) (UniProt Q96NX5)
CDK16 (human) = CDK16 (human) (UniProt Q00536)
CDK19 (human) = CDK19 (human) (UniProt Q9BWU1)
CDK8 (human) = CDK8 (human) (UniProt P49336)
CSNK1G2 (human) = CSNK1G2 (human) (UniProt P78368)
CSNK2A1 (human) = CSNK2A1 (human) (UniProt P68400)
DMPK (human) = DMPK (human) (UniProt Q09013)
EIF2AK2 (human) = EIF2AK2 (human) (UniProt P19525)
[1] = test system: EIF2AK4 KD2 (human), Q9P2K8 [S808G]
EPHB1 (human) = EPHB1 (human) (UniProt P54762)
FGR (human) = FGR (human) (UniProt P09769)
FLT1 (human) = FLT1 (human) (UniProt P17948)
IRAK3 (human) = IRAK3 (human) (UniProt Q9Y616)
KDR (human) = KDR (human) (UniProt P35968)
[2] = test system: KIT (human), P10721 [V559D]
MAP2K1 (human) = MAP2K1 (human) (UniProt Q02750)
MAP2K2 (human) = MAP2K2 (human) (UniProt P36507)
MAP2K6 (human) = MAP2K6 (human) (UniProt P52564)
MAP4K3 (human) = MAP4K3 (human) (UniProt Q8IVH8)
NEK6 (human) = NEK6 (human) (UniProt Q9HC98)
NEK9 (human) = NEK9 (human) (UniProt Q8TD19)
NTRK2 (human) = NTRK2 (human) (UniProt Q16620)
PAK1 (human) = PAK1 (human) (UniProt Q13153)
PDGFRA (human) = PDGFRA (human) (UniProt P16234)
PIP4K2B (human) = PIP4K2B (human) (UniProt P78356)
PRKAA2 (human) = PRKAA2 (human) (UniProt P54646)
PRKCD (human) = PRKCD (human) (UniProt Q05655)
RIOK2 (human) = RIOK2 (human) (UniProt Q9BVS4)
RIPK2 (human) = RIPK2 (human) (UniProt O43353)
RPS6KA1 KD1 (human) = RPS6KA1 KD1 (human) (UniProt Q15418)
RPS6KA1 KD2 (human) = RPS6KA1 KD2 (human) (UniProt Q15418)
RPS6KA4 KD2 (human) = RPS6KA4 KD2 (human) (UniProt O75676)
SGK110 (human) = SGK110 (human) (UniProt P0C264)
STK17A (human) = STK17A (human) (UniProt Q9UEE5)
STK33 (human) = STK33 (human) (UniProt Q9BYT3)
TTK (human) = TTK (human) (UniProt P33981)
ULK2 (human) = ULK2 (human) (UniProt Q8IYT8)
WEE2 (human) = WEE2 (human) (UniProt P0C1S8)

RPS6KA4 KD2 (human), sequence (O75676 whole entry, looked up): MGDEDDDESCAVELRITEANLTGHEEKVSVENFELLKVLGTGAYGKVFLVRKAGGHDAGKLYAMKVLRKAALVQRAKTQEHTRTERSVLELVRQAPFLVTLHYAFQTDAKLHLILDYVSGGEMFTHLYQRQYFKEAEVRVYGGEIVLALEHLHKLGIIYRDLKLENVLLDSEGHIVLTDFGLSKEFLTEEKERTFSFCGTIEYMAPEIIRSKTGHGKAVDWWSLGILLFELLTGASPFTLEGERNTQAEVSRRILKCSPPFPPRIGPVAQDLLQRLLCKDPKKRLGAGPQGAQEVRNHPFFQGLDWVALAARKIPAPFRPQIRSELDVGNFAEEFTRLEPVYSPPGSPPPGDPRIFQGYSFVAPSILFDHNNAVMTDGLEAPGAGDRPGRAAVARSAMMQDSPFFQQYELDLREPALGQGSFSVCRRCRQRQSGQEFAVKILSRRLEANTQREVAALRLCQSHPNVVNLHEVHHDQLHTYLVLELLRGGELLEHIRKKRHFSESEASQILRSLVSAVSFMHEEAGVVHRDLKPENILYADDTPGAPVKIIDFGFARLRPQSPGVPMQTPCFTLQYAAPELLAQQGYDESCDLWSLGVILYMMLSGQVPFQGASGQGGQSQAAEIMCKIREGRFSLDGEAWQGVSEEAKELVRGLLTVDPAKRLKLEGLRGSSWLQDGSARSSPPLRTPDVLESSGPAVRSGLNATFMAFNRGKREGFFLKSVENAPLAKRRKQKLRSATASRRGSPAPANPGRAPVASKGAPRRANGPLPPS
EPHB1 (human), sequence (P54762 whole entry, looked up): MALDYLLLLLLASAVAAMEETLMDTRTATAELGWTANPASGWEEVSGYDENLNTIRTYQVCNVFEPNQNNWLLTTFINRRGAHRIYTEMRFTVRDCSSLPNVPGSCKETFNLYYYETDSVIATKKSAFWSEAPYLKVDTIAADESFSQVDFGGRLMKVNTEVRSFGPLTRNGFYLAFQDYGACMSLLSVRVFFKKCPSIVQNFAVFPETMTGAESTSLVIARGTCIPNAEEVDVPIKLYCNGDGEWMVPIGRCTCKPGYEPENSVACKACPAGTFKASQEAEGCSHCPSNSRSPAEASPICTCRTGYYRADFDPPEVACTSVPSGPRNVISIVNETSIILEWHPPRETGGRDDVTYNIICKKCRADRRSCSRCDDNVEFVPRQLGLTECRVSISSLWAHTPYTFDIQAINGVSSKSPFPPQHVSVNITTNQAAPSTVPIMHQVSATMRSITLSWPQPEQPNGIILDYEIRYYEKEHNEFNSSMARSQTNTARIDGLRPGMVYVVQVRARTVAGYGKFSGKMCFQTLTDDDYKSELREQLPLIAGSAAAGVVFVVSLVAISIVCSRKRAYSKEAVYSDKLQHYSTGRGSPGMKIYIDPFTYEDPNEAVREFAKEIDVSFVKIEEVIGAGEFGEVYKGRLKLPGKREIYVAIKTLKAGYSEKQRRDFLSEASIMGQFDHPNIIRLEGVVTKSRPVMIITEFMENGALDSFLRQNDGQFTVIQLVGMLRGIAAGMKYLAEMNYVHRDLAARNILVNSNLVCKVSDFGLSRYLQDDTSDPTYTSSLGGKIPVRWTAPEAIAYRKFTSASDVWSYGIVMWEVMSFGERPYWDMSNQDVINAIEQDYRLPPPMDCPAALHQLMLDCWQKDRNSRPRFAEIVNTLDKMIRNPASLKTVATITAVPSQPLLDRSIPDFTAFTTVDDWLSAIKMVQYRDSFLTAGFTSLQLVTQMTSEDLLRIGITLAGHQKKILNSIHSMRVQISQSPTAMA
RIOK2 (human), sequence (Q9BVS4 whole entry, looked up): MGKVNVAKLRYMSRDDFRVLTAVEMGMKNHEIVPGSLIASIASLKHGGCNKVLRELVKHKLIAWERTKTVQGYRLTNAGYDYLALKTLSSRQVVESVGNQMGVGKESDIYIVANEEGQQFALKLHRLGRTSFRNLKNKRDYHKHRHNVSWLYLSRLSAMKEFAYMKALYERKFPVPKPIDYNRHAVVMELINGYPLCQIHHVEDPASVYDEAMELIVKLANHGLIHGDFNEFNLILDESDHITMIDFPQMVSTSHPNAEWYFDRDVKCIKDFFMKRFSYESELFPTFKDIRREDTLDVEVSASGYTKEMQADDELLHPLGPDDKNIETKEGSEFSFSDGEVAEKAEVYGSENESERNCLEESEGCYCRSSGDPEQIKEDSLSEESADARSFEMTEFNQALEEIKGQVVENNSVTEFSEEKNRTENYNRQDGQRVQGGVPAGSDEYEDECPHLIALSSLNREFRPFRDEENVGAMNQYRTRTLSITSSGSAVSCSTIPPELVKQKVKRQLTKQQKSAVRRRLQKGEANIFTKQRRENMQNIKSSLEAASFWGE
MAP4K3 (human), sequence (Q8IVH8 whole entry, looked up): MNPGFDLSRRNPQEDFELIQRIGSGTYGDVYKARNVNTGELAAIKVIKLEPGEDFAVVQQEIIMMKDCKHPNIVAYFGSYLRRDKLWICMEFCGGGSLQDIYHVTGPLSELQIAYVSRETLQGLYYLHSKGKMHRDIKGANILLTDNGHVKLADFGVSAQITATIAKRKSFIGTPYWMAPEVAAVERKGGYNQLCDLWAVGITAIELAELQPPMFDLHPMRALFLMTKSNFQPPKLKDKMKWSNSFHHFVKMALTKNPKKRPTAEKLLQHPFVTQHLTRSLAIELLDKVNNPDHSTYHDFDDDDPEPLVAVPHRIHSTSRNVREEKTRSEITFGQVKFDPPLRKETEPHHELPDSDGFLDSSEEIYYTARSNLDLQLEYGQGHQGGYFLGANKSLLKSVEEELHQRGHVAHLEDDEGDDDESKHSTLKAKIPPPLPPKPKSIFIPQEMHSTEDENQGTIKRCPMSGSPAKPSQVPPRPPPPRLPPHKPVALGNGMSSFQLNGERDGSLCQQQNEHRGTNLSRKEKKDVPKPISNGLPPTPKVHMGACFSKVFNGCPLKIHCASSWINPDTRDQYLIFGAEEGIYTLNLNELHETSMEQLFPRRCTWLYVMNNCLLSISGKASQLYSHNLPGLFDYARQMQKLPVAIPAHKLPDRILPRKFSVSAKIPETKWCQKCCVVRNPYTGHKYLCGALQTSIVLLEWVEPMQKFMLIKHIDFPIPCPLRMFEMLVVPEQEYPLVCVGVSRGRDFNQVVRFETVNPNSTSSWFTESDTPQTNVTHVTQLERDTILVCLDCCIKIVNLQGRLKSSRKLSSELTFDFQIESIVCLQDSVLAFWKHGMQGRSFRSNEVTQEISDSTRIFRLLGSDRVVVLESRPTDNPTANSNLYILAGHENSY
NTRK2 (human), sequence (Q16620 whole entry, looked up): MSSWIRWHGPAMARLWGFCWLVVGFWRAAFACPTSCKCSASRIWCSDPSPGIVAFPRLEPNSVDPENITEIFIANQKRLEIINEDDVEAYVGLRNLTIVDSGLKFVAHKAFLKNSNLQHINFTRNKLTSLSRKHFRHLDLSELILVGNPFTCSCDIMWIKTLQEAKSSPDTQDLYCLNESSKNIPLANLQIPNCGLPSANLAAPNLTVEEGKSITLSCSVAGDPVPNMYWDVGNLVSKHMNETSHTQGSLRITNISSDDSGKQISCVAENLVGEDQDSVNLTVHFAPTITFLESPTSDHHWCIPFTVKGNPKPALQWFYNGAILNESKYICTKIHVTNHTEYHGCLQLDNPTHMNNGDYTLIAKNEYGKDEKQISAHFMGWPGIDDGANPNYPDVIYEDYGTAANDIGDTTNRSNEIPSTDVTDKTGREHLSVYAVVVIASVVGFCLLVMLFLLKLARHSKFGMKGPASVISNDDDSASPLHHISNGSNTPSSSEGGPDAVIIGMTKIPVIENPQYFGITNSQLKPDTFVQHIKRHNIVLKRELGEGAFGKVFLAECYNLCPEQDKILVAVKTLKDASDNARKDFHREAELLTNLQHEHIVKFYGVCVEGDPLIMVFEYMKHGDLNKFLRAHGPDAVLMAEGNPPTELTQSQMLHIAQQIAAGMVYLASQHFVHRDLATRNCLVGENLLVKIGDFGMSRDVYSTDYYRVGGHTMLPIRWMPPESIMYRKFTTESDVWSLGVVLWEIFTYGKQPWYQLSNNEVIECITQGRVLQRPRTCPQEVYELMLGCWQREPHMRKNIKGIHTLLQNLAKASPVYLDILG
STK17A (human), sequence (Q9UEE5 whole entry, looked up): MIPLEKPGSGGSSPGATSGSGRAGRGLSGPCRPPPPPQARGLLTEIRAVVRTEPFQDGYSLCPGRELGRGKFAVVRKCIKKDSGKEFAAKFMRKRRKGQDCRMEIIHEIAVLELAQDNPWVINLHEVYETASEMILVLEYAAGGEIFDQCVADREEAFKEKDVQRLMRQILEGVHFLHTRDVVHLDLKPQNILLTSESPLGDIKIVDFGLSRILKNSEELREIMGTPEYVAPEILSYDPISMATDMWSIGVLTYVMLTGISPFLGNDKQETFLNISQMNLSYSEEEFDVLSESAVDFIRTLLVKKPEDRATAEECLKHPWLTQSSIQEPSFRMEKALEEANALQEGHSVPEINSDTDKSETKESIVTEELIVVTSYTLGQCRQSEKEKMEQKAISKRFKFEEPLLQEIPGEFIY
EIF2AK2 (human), sequence (P19525 whole entry, looked up): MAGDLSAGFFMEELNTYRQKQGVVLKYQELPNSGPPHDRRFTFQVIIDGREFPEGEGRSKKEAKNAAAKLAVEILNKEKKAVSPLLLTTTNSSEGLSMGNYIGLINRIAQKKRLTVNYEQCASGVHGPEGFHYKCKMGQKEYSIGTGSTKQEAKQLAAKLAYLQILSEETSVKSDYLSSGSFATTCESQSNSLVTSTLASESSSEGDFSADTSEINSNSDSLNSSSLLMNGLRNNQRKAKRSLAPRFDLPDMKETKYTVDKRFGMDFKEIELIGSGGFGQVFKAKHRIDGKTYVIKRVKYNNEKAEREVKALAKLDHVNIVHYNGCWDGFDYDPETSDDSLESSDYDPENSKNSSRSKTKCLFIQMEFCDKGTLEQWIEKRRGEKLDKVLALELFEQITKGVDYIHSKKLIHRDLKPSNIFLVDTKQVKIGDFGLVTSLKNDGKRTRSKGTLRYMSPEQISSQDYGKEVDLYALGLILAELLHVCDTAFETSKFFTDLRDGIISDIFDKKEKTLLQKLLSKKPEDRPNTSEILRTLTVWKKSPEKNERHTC

C=CC(=O)Nc1cc(NC(=O)c2ccc(C)c(NC(=O)c3ccno3)c2)cc(C(F)(F)F)c1
kinase still bound, per cent of control (ACVR2A (human)): 100%
kinase still bound, per cent of control (AURKB (human)): 100%
kinase still bound, per cent of control (CAMK1G (human)): 91%
kinase still bound, per cent of control (CDK16 (human)): 95%
kinase still bound, per cent of control (CDK19 (human)): 96%
kinase still bound, per cent of control (CDK8 (human)): 100%
kinase still bound, per cent of control (CSNK1G2 (human)): 100%
kinase still bound, per cent of control (CSNK2A1 (human)): 100%
kinase still bound, per cent of control (DMPK (human)): 100%
kinase still bound, per cent of control (EIF2AK2 (human)): 100%
kinase still bound, per cent of control [1]: 100%
kinase still bound, per cent of control (EPHB1 (human)): 79%
kinase still bound, per cent of control (FGR (human)): 63%
kinase still bound, per cent of control (FLT1 (human)): 100%
kinase still bound, per cent of control (IRAK3 (human)): 100%
kinase still bound, per cent of control (KDR (human)): 87%
kinase still bound, per cent of control [2]: 1.4%
kinase still bound, per cent of control (MAP2K1 (human)): 87%
kinase still bound, per cent of control (MAP2K2 (human)): 93%
kinase still bound, per cent of control (MAP2K6 (human)): 100%
kinase still bound, per cent of control (MAP4K3 (human)): 87%
kinase still bound, per cent of control (NEK6 (human)): 100%
kinase still bound, per cent of control (NEK9 (human)): 100%
kinase still bound, per cent of control (NTRK2 (human)): 84%
kinase still bound, per cent of control (PAK1 (human)): 79%
kinase still bound, per cent of control (PDGFRA (human)): 41%
kinase still bound, per cent of control (PIP4K2B (human)): 100%
kinase still bound, per cent of control (PRKAA2 (human)): 100%
kinase still bound, per cent of control (PRKCD (human)): 91%
kinase still bound, per cent of control (RIOK2 (human)): 92%
kinase still bound, per cent of control (RIPK2 (human)): 100%
kinase still bound, per cent of control (RPS6KA1 KD1 (human)): 99%
kinase still bound, per cent of control (RPS6KA1 KD2 (human)): 100%
kinase still bound, per cent of control (RPS6KA4 KD2 (human)): 94%
kinase still bound, per cent of control (SGK110 (human)): 100%
kinase still bound, per cent of control (STK17A (human)): 100%
kinase still bound, per cent of control (STK33 (human)): 100%
kinase still bound, per cent of control (TTK (human)): 77%
kinase still bound, per cent of control (ULK2 (human)): 100%
kinase still bound, per cent of control (WEE2 (human)): 84%

C=CC(=O)Nc1cccc(Nc2nc(N[C@H]3CC[C@H](N(C)C)CC3)nc3c2ncn3C(C)C)c1
kinase still bound, per cent of control (ACVR2A (human)): 97%
kinase still bound, per cent of control (AURKB (human)): 73%
kinase still bound, per cent of control (CAMK1G (human)): 93%
kinase still bound, per cent of control (CDK16 (human)): 100%
kinase still bound, per cent of control (CDK19 (human)): 100%
kinase still bound, per cent of control (CDK8 (human)): 100%
kinase still bound, per cent of control (CSNK1G2 (human)): 7.9%
kinase still bound, per cent of control (CSNK2A1 (human)): 54%
kinase still bound, per cent of control (DMPK (human)): 8.8%
kinase still bound, per cent of control (EIF2AK2 (human)): 78%
kinase still bound, per cent of control [1]: 59%
kinase still bound, per cent of control (EPHB1 (human)): 84%
kinase still bound, per cent of control (FGR (human)): 14%
kinase still bound, per cent of control (FLT1 (human)): 100%
kinase still bound, per cent of control (IRAK3 (human)): 38%
kinase still bound, per cent of control (KDR (human)): 96%
kinase still bound, per cent of control [2]: 42%
kinase still bound, per cent of control (MAP2K1 (human)): 83%
kinase still bound, per cent of control (MAP2K2 (human)): 100%
kinase still bound, per cent of control (MAP2K6 (human)): 100%
kinase still bound, per cent of control (MAP4K3 (human)): 25%
kinase still bound, per cent of control (NEK6 (human)): 90%
kinase still bound, per cent of control (NEK9 (human)): 100%
kinase still bound, per cent of control (NTRK2 (human)): 5.3%
kinase still bound, per cent of control (PAK1 (human)): 78%
kinase still bound, per cent of control (PDGFRA (human)): 59%
kinase still bound, per cent of control (PIP4K2B (human)): 54%
kinase still bound, per cent of control (PRKAA2 (human)): 100%
kinase still bound, per cent of control (PRKCD (human)): 83%
kinase still bound, per cent of control (RIOK2 (human)): 66%
kinase still bound, per cent of control (RIPK2 (human)): 100%
kinase still bound, per cent of control (RPS6KA1 KD1 (human)): 9.4%
kinase still bound, per cent of control (RPS6KA1 KD2 (human)): 67%
kinase still bound, per cent of control (RPS6KA4 KD2 (human)): 52%
kinase still bound, per cent of control (SGK110 (human)): 88%
kinase still bound, per cent of control (STK17A (human)): 100%
kinase still bound, per cent of control (STK33 (human)): 15%
kinase still bound, per cent of control (TTK (human)): 51%
kinase still bound, per cent of control (ULK2 (human)): 2%
kinase still bound, per cent of control (WEE2 (human)): 100%

Cc1ccc(NC(=O)c2cccc(C(C)(C)C#N)c2)cc1Nc1ccc2ncn(C)c(=O)c2c1
kinase still bound, per cent of control (ACVR2A (human)): 100%
kinase still bound, per cent of control (AURKB (human)): 100%
kinase still bound, per cent of control (CAMK1G (human)): 100%
kinase still bound, per cent of control (CDK16 (human)): 100%
kinase still bound, per cent of control (CDK19 (human)): 35%
kinase still bound, per cent of control (CDK8 (human)): 22%
kinase still bound, per cent of control (CSNK1G2 (human)): 100%
kinase still bound, per cent of control (CSNK2A1 (human)): 88%
kinase still bound, per cent of control (DMPK (human)): 90%
kinase still bound, per cent of control (EIF2AK2 (human)): 75%
kinase still bound, per cent of control [1]: 85%
kinase still bound, per cent of control (EPHB1 (human)): 1%
kinase still bound, per cent of control (FGR (human)): 12%
kinase still bound, per cent of control (FLT1 (human)): 4.4%
kinase still bound, per cent of control (IRAK3 (human)): 95%
kinase still bound, per cent of control (KDR (human)): 2.3%
kinase still bound, per cent of control [2]: 0.05%
kinase still bound, per cent of control (MAP2K1 (human)): 100%
kinase still bound, per cent of control (MAP2K2 (human)): 100%
kinase still bound, per cent of control (MAP2K6 (human)): 100%
kinase still bound, per cent of control (MAP4K3 (human)): 94%
kinase still bound, per cent of control (NEK6 (human)): 100%
kinase still bound, per cent of control (NEK9 (human)): 100%
kinase still bound, per cent of control (NTRK2 (human)): 77%
kinase still bound, per cent of control (PAK1 (human)): 100%
kinase still bound, per cent of control (PDGFRA (human)): 0.1%
kinase still bound, per cent of control (PIP4K2B (human)): 100%
kinase still bound, per cent of control (PRKAA2 (human)): 100%
kinase still bound, per cent of control (PRKCD (human)): 89%
kinase still bound, per cent of control (RIOK2 (human)): 100%
kinase still bound, per cent of control (RIPK2 (human)): 7%
kinase still bound, per cent of control (RPS6KA1 KD1 (human)): 85%
kinase still bound, per cent of control (RPS6KA1 KD2 (human)): 87%
kinase still bound, per cent of control (RPS6KA4 KD2 (human)): 94%
kinase still bound, per cent of control (SGK110 (human)): 100%
kinase still bound, per cent of control (STK17A (human)): 100%
kinase still bound, per cent of control (STK33 (human)): 99%
kinase still bound, per cent of control (TTK (human)): 95%
kinase still bound, per cent of control (ULK2 (human)): 100%
kinase still bound, per cent of control (WEE2 (human)): 100%
